± gives the expanded uncertainty stated by the source. Blank lines part the entries; values can stand above or below the compound they belong to.
Conditions: Liquid; for vapor or sublimation pressure: Ebulliometric method (Recirculating still)

- vapor or sublimation pressure (441.8 K): 40 ± 0.34 kPa
Compound: CN1CCCC1=O [N-methylpyrrolidone]

- vapor or sublimation pressure (371.05 K): 9.9 ± 0.2 kPa
- vapor or sublimation pressure (375.35 K): 11.7 ± 0.2 kPa
- vapor or sublimation pressure (385.85 K): 17.1 ± 0.2 kPa
- vapor or sublimation pressure (394.25 K): 22.8 ± 0.2 kPa
- vapor or sublimation pressure (399.5 K): 27.1 ± 0.2 kPa
- vapor or sublimation pressure (403.5 K): 30.8 ± 0.2 kPa
- vapor or sublimation pressure (405.85 K): 33.2 ± 0.2 kPa
- vapor or sublimation pressure (411.9 K): 39.9 ± 0.2 kPa
- vapor or sublimation pressure (412.05 K): 40 ± 0.2 kPa
- vapor or sublimation pressure (419.05 K): 49.4 ± 0.3 kPa
- vapor or sublimation pressure (425.2 K): 59 ± 0.3 kPa
- vapor or sublimation pressure (431.15 K): 69.6 ± 0.3 kPa
- vapor or sublimation pressure (436.65 K): 80.7 ± 0.3 kPa
- vapor or sublimation pressure (441.45 K): 91.6 ± 0.3 kPa
- vapor or sublimation pressure (445.4 K): 101.3 ± 0.3 kPa
- Normal boiling temperature (Equilibrium Still): 172.2 ± 0.2 °C
Compound: CCCCC(CC)CCl (centres undefined) [1-chloro-2-ethylhexane]

- vapor or sublimation pressure (427.2 K): 40 ± 0.34 kPa
Compound: CCCCC(CC)CO (centres undefined) [2-ethyl-1-hexanol]

Compound: Cc1ccc(C)cc1 [1,4-dimethylbenzene]
- vapor or sublimation pressure (379.85 K): 40 ± 0.34 kPa
